According to ChEMBL document CHEMBL5257035, “Nucleoside Derived Antibiotics to Fight Microbial Drug Resistance: New Utilities for an Established Class of Drugs?” (J Med Chem, 2016):
Converted amounts (≈) assume the structure as drawn.

How the values were obtained:
Pseudomonas aeruginosa = test: Antimicrobial activity against Pseudomonas aeruginosa M35 assessed as reduction in microbial growth; type: functional
[1] = target: Phospho-N-acetylmuramoyl-pentapeptide-transferase (Staphylococcus aureus, UniProt P0C1R8); test: Inhibition of Staphylococcus aureus MraY
Chain of Phospho-N-acetylmuramoyl-pentapeptide-transferase (Staphylococcus aureus, UniProt P0C1R8) (P0C1R8 whole entry): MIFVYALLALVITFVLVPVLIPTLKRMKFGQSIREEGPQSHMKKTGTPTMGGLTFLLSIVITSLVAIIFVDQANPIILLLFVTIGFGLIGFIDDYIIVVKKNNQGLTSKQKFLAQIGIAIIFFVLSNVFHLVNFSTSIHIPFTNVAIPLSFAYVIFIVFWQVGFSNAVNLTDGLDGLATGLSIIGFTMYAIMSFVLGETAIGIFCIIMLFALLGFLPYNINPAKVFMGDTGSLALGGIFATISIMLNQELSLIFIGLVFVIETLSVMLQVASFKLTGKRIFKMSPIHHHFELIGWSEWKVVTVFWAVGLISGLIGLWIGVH

Staphylococcus aureus [2] = test: Antibacterial activity against methicillin-resistant Staphylococcus aureus assessed as reduction in bacterial growth by broth dilution method; type: functional
[3] = target: T1, Phospho-N-acetylmuramoyl-pentapeptide-transferase (Escherichia coli, UniProt E2QF15); test: Inhibition of MraY in Escherichia coli
T1 sequence (E2QF15 whole entry): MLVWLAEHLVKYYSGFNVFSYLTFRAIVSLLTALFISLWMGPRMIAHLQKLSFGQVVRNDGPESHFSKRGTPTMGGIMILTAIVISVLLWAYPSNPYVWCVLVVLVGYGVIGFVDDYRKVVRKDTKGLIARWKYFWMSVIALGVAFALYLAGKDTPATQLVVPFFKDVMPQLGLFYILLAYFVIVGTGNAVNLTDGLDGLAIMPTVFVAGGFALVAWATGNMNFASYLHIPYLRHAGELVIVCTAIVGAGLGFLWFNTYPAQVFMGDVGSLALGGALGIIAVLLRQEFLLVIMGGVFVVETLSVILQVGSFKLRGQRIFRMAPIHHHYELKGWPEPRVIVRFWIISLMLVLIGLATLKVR

Candida albicans [4] = test: […] activity against Candida albicans assessed as […] measured after 24 hrs by microtitre dilution method; type: functional
[5] = Inhibition of Candida albicans chitin synthase
Candida albicans [6] = test: Inhibition of Candida albicans chitin synthase at 1 uM relative to control
Candida albicans [7] = test: Antifungal activity against Candida albicans assessed as fungal growth inhibition measured after 24 hrs by micro broth dilution method; type: functional
Cryptococcus neoformans [8] = test: Antifungal activity against Cryptococcus neoformans assessed as fungal growth inhibition measured after 24 hrs by micro broth dilution method; type: functional
Aspergillus fumigatus = test: Antifungal activity against Aspergillus fumigatus assessed as fungal growth inhibition; type: functional
Cryptococcus neoformans [9] = test: Antifungal activity against Cryptococcus neoformans assessed as fungal growth inhibition; type: functional
Fusarium oxysporum = test: Antifungal activity against Fusarium oxysporum assessed as inhibition of fungal growth; type: functional
Candida albicans [10] = test: Antifungal activity against Candida albicans assessed as inhibition of fungal growth; type: functional
Cryptococcus neoformans [11] = test: Antifungal activity against Cryptococcus neoformans assessed as reduction in fungal growth; type: functional
Candida albicans [12] = test: Antifungal activity against Candida albicans SC5314 assessed as reduction in microbial growth inhibition incubated for 48 hrs by broth microdilution assay; type: functional
Coccidioides immitis = test: Antifungal activity against Coccidioides immitis assessed as reduction in fungal growth; type: functional
[13] = tested on: Cutaneotrichosporon cutaneum; test: Antifungal activity against Trichosporon cutaneum 3071 assessed as reduction in microbial growth inhibition for 48 hrs by broth microdilution assay; type: functional
[14] = Inhibition of Candida albicans SC5314 chitin synthase using UDP-GlcNAc as substrate incubated for 1 hr
Candida albicans [15] = test: Antifungal activity against Candida albicans B-311 assessed as reduction fungal growth incubated for 16 hrs by microbroth dilution method; type: functional
Staphylococcus aureus [16] = test: Antimicrobial activity against methicillin-resistant Staphylococcus aureus 10925 assessed as reduction in microbial growth by broth microdilution method; type: functional
[17] = Inhibition of Bacterial MraY; design: species or system Bacteria
Staphylococcus aureus [18] = test: Antimicrobial activity against methicillin-resistant Staphylococcus aureus assessed as reduction in microbial growth by broth microdilution method; type: functional
[19] = Cytotoxicity against human HepG2 cells assessed as reduction in cell viability incubated for 72 hrs by MTT assay; type: toxicity, cell-based
Enterococcus faecalis = test: Antimicrobial activity against Enterococcus faecalis 10785 assessed as reduction in microbial growth by broth microdilution method; type: functional
Aspergillus niger = test: Antifungal activity against Aspergillus niger MTCC 282 assessed as reduction in microbial growth measured after 48 hrs by broth dilution method; type: functional

CSCC[C@H](NC(=O)N[C@@H](Cc1cccc(O)c1)C(=O)O)C(=O)NC(CN(C)C(=O)C1Cc2ccc(O)cc2C(C)N1)C(=O)N/C=C1/C[C@@H](O)[C@H](n2ccc(=O)[nH]c2=O)O1 (stereo not given in full)
MIC (Pseudomonas aeruginosa): 6.25 mg/L

COC(=O)C1=C[C@@H](O)[C@@H](O)[C@H](O[C@@H](C(N)=O)[C@H]2O[C@@H](n3ccc(=O)[nH]c3=O)[C@H](O)[C@@H]2OC)O1
IC50 [1]: 0.027 µM

NC[C@H]1O[C@@H](O[C@@H](Cn2cc(CCCCCCCCOc3ccc(C(=O)c4ccccc4)cc3)nn2)[C@H]2O[C@@H](n3ccc(=O)[nH]c3=O)[C@H](O)[C@@H]2O)[C@H](O)[C@@H]1O
MIC (Staphylococcus aureus [2]): 8 mg/L (≈ 10.5 µM)
IC50 [3]: 8 µM

NC(=O)OC[C@H](O)[C@@H](O)[C@H](N)C(=O)N[C@H](C(=O)O)[C@H]1O[C@@H](n2cc(C=O)[nH]c2=O)[C@H](O)[C@@H]1O
MIC (Candida albicans [4]): 6 mg/L (≈ 12.6 µM)

O=C(NC[C@@H]1O[C@H](n2ccc(=O)[nH]c2=O)[C@@H](O)[C@H]1O)OCCOC(=O)NC[C@H]1O[C@@H](n2ccc(=O)[nH]c2=O)[C@H](O)[C@@H]1O
IC50 [5]: 1.1 µM
inhibition (Candida albicans [6]): 32%

CCOC(=O)CCSC[C@H]1O[C@@H](n2cnc3c(N)cccc32)[C@H](O)[C@@H]1O
MIC (Candida albicans [7]): 0.19 µM (≈ 0.0725 µg/mL)
MIC (Cryptococcus neoformans [8]): 0.19 µM (≈ 0.0725 µg/mL)
MIC (Aspergillus fumigatus): 0.19 µM (≈ 0.0725 µg/mL)

COc1ccc(OCc2cn(C[C@H]3O[C@@H](n4ccc(=O)[nH]c4=O)[C@@H]4OC(C)(C)O[C@@H]43)nn2)cc1
MIC (Cryptococcus neoformans [9]): 8 mg/L (≈ 17 µM)
MIC (Fusarium oxysporum): 32 mg/L (≈ 67.9 µM)
MIC (Candida albicans [10]): 24 mg/L (≈ 50.9 µM)

CSCC[C@H](NC(=O)N[C@@H](Cc1cccc(O)c1)C(=O)O)C(=O)NC(CN(C)C(=O)C1Cc2ccc(O)cc2CN1)C(=O)N/C=C1/C[C@@H](O)[C@H](N2CCC(=O)NC2=O)O1 (stereo not given in full)
MIC (Pseudomonas aeruginosa): 6.25 mg/L

C[C@@H]([C@H](N)C(=O)N[C@H](C(=O)O)[C@H]1O[C@@H](n2ccc(=O)[nH]c2=O)[C@H](O)[C@@H]1O)[C@H](O)c1ccc(O)cn1 [NIKKOMYCIN]
MIC (Cryptococcus neoformans [11]): 0.03 mg/L (≈ 0.0606 µM)
MIC (Candida albicans [12]): 8 mg/L
MIC (Coccidioides immitis): 0.25 mg/L (≈ 0.505 µM)
MIC [13]: 64 mg/L
IC50 [14]: 0.3 mg/L (≈ 0.606 µM)
IC50 [5]: 0.8 µM
MIC (Candida albicans [15]): 10 mg/L (≈ 20.2 µM)

CSCC[C@H](NC(=O)N[C@@H](Cc1cccc(O)c1)C(=O)O)C(=O)NC(CN(C)C(=O)C1Cc2ccc(O)cc2CN1)C(=O)N/C=C1/C[C@@H](O)[C@H](n2ccc(=O)[nH]c2=O)O1 (stereo not given in full)
MIC (Pseudomonas aeruginosa): 6.25 mg/L

CSCC[C@H](NC(=O)N[C@@H](Cc1cccc(O)c1)C(=O)O)C(=O)NC(CN(C)C(=O)C1Cc2ccc(O)cc2C(C)N1)C(=O)N/C=C1/C[C@@H](O)[C@H](N2CCC(=O)NC2=O)O1 (stereo not given in full)
MIC (Pseudomonas aeruginosa): 6.25 mg/L

Nc1cccc2c1ncn2[C@@H]1O[C@H](CSCCC(=O)O)[C@@H](O)[C@H]1O
MIC (Candida albicans [7]): 0.19 µM (≈ 0.0671 µg/mL)
MIC (Cryptococcus neoformans [8]): 0.19 µM (≈ 0.0671 µg/mL)
MIC (Aspergillus fumigatus): 0.19 µM (≈ 0.0671 µg/mL)

Nc1ccn([C@@H]2O[C@H](CO)[C@@H](O)C2(F)F)c(=O)n1 [GEMCITABINE]
MIC (Staphylococcus aureus [16]): 0.002 mg/L

Nc1ncnc2c1ncn2[C@@H]1O[C@H](CSCCC(=O)O)[C@@H](O)[C@H]1O
MIC (Candida albicans [7]): 0.19 µM (≈ 0.0675 µg/mL)
MIC (Cryptococcus neoformans [8]): 0.19 µM (≈ 0.0675 µg/mL)
MIC (Aspergillus fumigatus): 0.19 µM (≈ 0.0675 µg/mL)

CCCCCCCCCCCCCCC[C@@H](NC(=O)[C@@H](NC(=O)N[C@H](C(=O)O)C(C)C)[C@@H]1CCNC(=N)N1)C(=O)NCCCNC(C(=O)O)[C@H](O[C@@H]1O[C@H](CN)[C@@H](O)[C@H]1O)[C@H]1O[C@@H](n2ccc(=O)[nH]c2=O)[C@H](O)[C@@H]1O (stereo not given in full)
IC50 [17]: 0.74 µM
MIC (Staphylococcus aureus [18]): 2 mg/L
IC50 at 72 h [19]: > 100 mg/L
MIC (Enterococcus faecalis): 0.25 mg/L

CCC(C)CCCCCCC/C(C)=C/C(C)=C/C(=O)NCC(=O)N[C@H]1[C@H](OP(=O)(O)OC(C(=O)O)C(C[C@H]2O[C@@H](n3ccc(=O)[nH]c3=O)[C@H](O)[C@@H]2O)O[C@@H]2O[C@H](CO)[C@@H](O)[C@H](O)[C@H]2O)O[C@H](CO)[C@@H](O)[C@@H]1O (stereo not given in full)
IC50 [17]: 1.1 µM
MIC (Staphylococcus aureus [18]): 100 mg/L
MIC (Enterococcus faecalis): 50 mg/L

CC(C)C[C@H](N)C(=O)N[C@H](C(=O)O)[C@@H]1C[C@@H](O)[C@@H](O)[C@H](n2ccc(=O)[nH]c2=O)O1
MIC (Cryptococcus neoformans [11]): 0.25 mg/L (≈ 0.603 µM)
MIC (Coccidioides immitis): 0.25 mg/L (≈ 0.603 µM)
MIC (Aspergillus niger): 0.03 mg/L
